In patent publication US4606911A, “Pharmaceutical composition for the prevention of dental caries” (Rohto Pharmaceutical Co. Ltd., priority 1984, dated 1986):
Converted amounts (≈) assume the structure as drawn. “Also recorded” adds a separate entry of the source.

Columns and labels:
Type in all cases: cell-based
Esherichia coli K12 = assay: Antibacterial activity (MIC, growth in BHI medium); design: key to Antibacterial activity (growth): -: grow; ±: slightly grow; +: not grow
Experimental: (§1) To a test tube was charged 3.8 ml of Brain Heart Infusion (BHI) medium, and 100 μl of a sample solution containing oleanolic, ursolic or glycyrrhetic acid and 100 μl of pre-incubated culture of bacterium selected from those listed below were added thereto. The mixture was incubated at 37° C. and then allowed to stand over night. The extent of the growth of bacterium was observed after two or five days.
Esherichia coli K12 (Gram negative)

[1] = test system: Serratia marcescens IFO 12648; assay: Antibacterial activity (MIC, growth in BHI medium); design: key to Antibacterial activity (growth): -: grow; ±: slightly grow; +: not grow
Experimental: To a test tube was charged 3.8 ml of Brain Heart Infusion (BHI) medium, and 100 μl of a sample solution containing oleanolic, ursolic or glycyrrhetic acid and 100 μl of pre-incubated culture of bacterium selected from those listed below were added thereto. The mixture was incubated at 37° C. and then allowed to stand over night. The extent of the growth of bacterium was observed after two or five days. The MIC value was determined for each sample and summarized in Table 2. |Serratia marcescens IFO 12648

[2] = test system: Streptococcus mutans OMZ 176; assay: Antibacterial activity (MIC, growth in BHI medium); design: key to Antibacterial activity (growth): -: grow; ±: slightly grow; +: not grow; conditions: for antibacterial activity to S. mutans (in words): text statement
Experimental: as §1
Streptococcus mutans OMZ 176

bacterial cells = assay: Adherence of bacterial cells to the surface of an extracted tooth; conditions: extracted tooth suspended in a culture medium containing sucrose
[3] = test system: Bacillus megaterium QM B1551; assay: Antibacterial activity (MIC, growth in BHI medium); design: key to Antibacterial activity (growth): -: grow; ±: slightly grow; +: not grow
Experimental: To a test tube was charged 3.8 ml of Brain Heart Infusion (BHI) medium, and 100 μl of a sample solution containing oleanolic, ursolic or glycyrrhetic acid and 100 μl of pre-incubated culture of bacterium selected from those listed below were added thereto. The mixture was incubated at 37° C. and then allowed to stand over night. The extent of the growth of bacterium was observed after two or five days. The MIC value was determined for each sample and summarized in Table 2. |Bacillus megaterium QM B1551

[4] = test system: S. mutans OMZ 176 (serotype d); assay: microbe, parasite or virus in culture
Summary of the method: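 S. mutans OMZ 176 (serotype d) grown 20 h at 37° C in BHI with 5% sucrose plus compound (in water or DMSO) in tubes slanted at 30°. Adhered and non-adhered cells resuspended in 0.5 M NaOH and read at 660 nm. Adherence inhibition computed against vehicle control.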

[5] = test system: Streptococcus salivarius ATCC 9222; assay: Antibacterial activity (MIC, growth in BHI medium); design: key to Antibacterial activity (growth): -: grow; ±: slightly grow; +: not grow
Experimental: To a test tube was charged 3.8 ml of Brain Heart Infusion (BHI) medium, and 100 μl of a sample solution containing oleanolic, ursolic or glycyrrhetic acid and 100 μl of pre-incubated culture of bacterium selected from those listed below were added thereto. The mixture was incubated at 37° C. and then allowed to stand over night. The extent of the growth of bacterium was observed after two or five days. The MIC value was determined for each sample and summarized in Table 2. |Streptococcus salivarius ATCC 9222

[6] = Streptococcus mutans, read-out: Adherence-inhibiting activity (AIP)

CC1(C)CC[C@]2(C(=O)O)CC[C@]3(C)C(=CC[C@@H]4[C@@]5(C)CC[C@H](O)C(C)(C)[C@@H]5CC[C@]43C)[C@@H]2C1 [Oleanolic acid]
Antibacterial activity (growth) (Esherichia coli K12; 10 μg/ml): - | Antibacterial activity (growth) (Esherichia coli K12; 25 μg/ml): - | Antibacterial activity (growth) (Esherichia coli K12; 50 μg/ml): - | Antibacterial activity (growth) (Esherichia coli K12; 100 μg/ml): - | Antibacterial activity (growth) (Esherichia coli K12; 200 μg/ml): - | Antibacterial activity (growth) (Esherichia coli K12; 400 μg/ml): - | MIC (Esherichia coli K12; Esherichia coli, BHI, 37° C., read-out: MIC (minimum inhibitory concentration)): > 400 µg/mL | Antibacterial activity (growth) ([1]; 10 μg/ml): - | Antibacterial activity (growth) ([1]; 25 μg/ml): - | Antibacterial activity (growth) ([1]; 50 μg/ml): - | Antibacterial activity (growth) ([1]; 100 μg/ml): - | Antibacterial activity (growth) ([1]; 200 μg/ml): - | Antibacterial activity (growth) ([1]; 400 μg/ml): - | MIC ([1]; IFO12648, Serratia marcescens, BHI, 37° C., read-out: MIC (minimum inhibitory concentration)): > 400 µg/mL | Antibacterial activity (growth) ([2]; 10 μg/ml): - | antibacterial activity at 10 μg/ml (in words) ([2]; 10 μg/ml): ineffective for exhibiting antibacterial activity | Antibacterial activity (growth) ([2]; 25 μg/ml): - | Antibacterial activity (growth) ([2]; 50 μg/ml): ± | Antibacterial activity (growth) ([2]; 100 μg/ml): ± | Antibacterial activity (growth) ([2]; 200 μg/ml): ± | Antibacterial activity (growth) ([2]; 400 μg/ml): ± | MIC ([2]; Streptococcus mutans, OMZ176, Streptococcus mutans OMZ 176, BHI, 37° C., read-out: MIC (minimum inhibitory concentration)): 400 µg/mL (≈ 876 µM) | antibacterial activity to S. mutans (in words) [2]: also exhibit the selective activity on S. mutans, although the magnitude of the activity is each less than that of glycyrrthetic acid | antibacterial activity to S. mutans (in words) ([2]; listed as oleanolic acid): have both of the adherence-inhibiting activity and the selective antibacterial activity to S. mutans; also recorded: have both activities | adherence of bacterial cells to the surface of an extracted tooth (bacterial cells): completely inhibited | Antibacterial activity (growth) ([3]; 10 μg/ml): - | Antibacterial activity (growth) ([3]; 25 μg/ml): - | Antibacterial activity (growth) ([3]; 50 μg/ml): - | Antibacterial activity (growth) ([3]; 100 μg/ml): - | Antibacterial activity (growth) ([3]; 200 μg/ml): - | Antibacterial activity (growth) ([3]; 400 μg/ml): - | MIC ([3]; Priestia megaterium, QMB1551, Bacillus megaterium, BHI, 37° C., read-out: MIC (minimum inhibitory concentration)): > 400 µg/mL | minimal effective concentration ([4]; Streptococcus mutans, 20 h, read-out: concentration at which adherence of the bacterial cells is inhibited): 10 µg/mL | inhibition at 10 µg/mL [4, 6]: > 50% | inhibition at 20 µg/mL [4, 6]: > 50% | inhibition at 30 µg/mL [4, 6]: > 50% | inhibition at 50 µg/mL [4, 6]: > 50% | inhibition at 100 µg/mL [4, 6]: > 50% | adherence-inhibiting activity (in words) ([4]; text statement, listed as oleanolic acid): have both of the adherence-inhibiting activity and the selective antibacterial activity to S. mutans; also recorded: have both activities | Antibacterial activity (growth) ([5]; 10 μg/ml): - | Antibacterial activity (growth) ([5]; 25 μg/ml): - | Antibacterial activity (growth) ([5]; 50 μg/ml): - | Antibacterial activity (growth) ([5]; 100 μg/ml): - | Antibacterial activity (growth) ([5]; 200 μg/ml): ± | Antibacterial activity (growth) ([5]; 400 μg/ml): + | MIC ([5]; ATCC9222, Streptococcus salivarius, BHI, 37° C., read-out: MIC (minimum inhibitory concentration)): 400 µg/mL (≈ 876 µM)
